Reference: US20030109920A1, “Engineered animal tissue” (The Regents of the University of California, priority 2001, published 2003)

How the values were obtained:
Format in all cases: cell-based, human
VE-cadherin = test: IL-8 treatment of artificial tissue, phosphorylation of VE-Cadherin by immunoblot; conditions: artificial tissue treated with IL-8 at 50, 100, 300, 600, 1000 ng/ml for 30 minutes; immunoblot (FIG. 3)
Method: (§1) Cell cultures: Three dimensional artificial tissues were created as described above in Example 1 using primary normal human microvascular endothelial cells from adult lung (hMVEC; Clonetics), and primary adult normal human dermal fibroblasts (NHDF; Clonetics). The cultures were set up in either 24-well plates or Transwell units (Becton Dickinson) with polyethylene tetraphthalate filters containing 4 μm pores. Cultures were maintained at 37° C. and of 5% CO2 for at least 2 weeks. Medium was changed 24 hours after the cultures were started and then fed every 48 hours.
(§2) Immunoblotting: SDS-PAGE was performed using 10% separating Doucet gels (Doucet, J., and J. Trifaro. A discontinous and highly porous sodium dodecyl sulfatepolyacrylamide slab gel system of high resolution. Anal. Biochem. (1988) 168:265-271.). Protein transfer to nitrocellulose membranes was performed using a wet-transfer apparatus (BioRad) at 100V for 45 min at room temperature. The membranes were blocked for 1 hour in 5% BSA in TTBS (0.05% Tween in Tris buffered saline) and incubated overnight at 4° C. in primary antibody diluted in 1% BSA in TTBS. The membranes were washed 3 times for 20 min each with TTBS, incubated in anti-mouse or anti-rabbit HRP (1:10,000) in 1% BSA for 1 hr, and washed 3 times for 20 minutes each with TTBS. The antibody bound to the membrane was visualized using ECL chemiluminescent kit (Amersham). […]

PECAM-1 = test: IL-8 treatment of artificial tissue, phosphorylation of PECAM-1 by immunoblot; conditions: artificial tissue treated with IL-8 at 50, 100, 300, 600, 1000 ng/ml for 30 minutes; immunoblot (FIG. 3)
Method: as §1, §2

MMP-9 = test: Gelatin zymogram assay of MMP-9 in IL-8 treated artificial tissue; conditions: Cell/ECM extracts and culture medium (supernatants); samples collected 24 hours after IL-8 treatment (FIG. 4)
Method: as §1
Zymography: Zymography was performed using 10% denaturing polyacrylamide gels as previously described (Paech and Christiansen. (1994) In Cell biology: a laboratory handbook. (J. Celis, Ed.) V.3 pp.264-271 San Diego: Academic Press). Briefly, gels to test for gelatinolytic activity contained 1% gelatin (Sigma) and were cast 12 hours before the sample separation. Protein samples were separated at 4° C. with 10 mA constant current for each gel. The proteins were renatured using two washes of 15 minutes each in 2.5% Triton-X100 twice at RT. […]

IL-8: human chemokine IL-8, used as test compound on the artificial tissue
phosphorylation of VE-cadherin in microvessels (VE-cadherin): stimulates the phosphorylation
phosphorylation of PECAM in microvessels (PECAM-1): stimulates the phosphorylation
MMP-9 activation (MMP-9): increases MMP-9 production and activation in a dose-dependent manner
MMP-9 production (MMP-9): increases MMP-9 production and activation in a dose-dependent manner
